This is an account of results in patent publication US20180214428A1, “3-(1H-INDOL-2-YL)-1H-PYRAZOLO[3,4-B]PYRIDINES AND THERAPEUTIC USES THEREOF” (Samumed, LLC, priority 2015, published 2018).

The test system of test [1] is primary human fibroblasts derived from IPF patients (LL29 cells). The test can be described thus: Inhibition of the fibrotic process: αSMA staining in TGF-β1 treated LL29 fibroblasts. Format: cell-based. The conditions noted are these: Homo sapiens, Fibroblast, 96 h, TGF-β1 20 ng/mL, 4 days, % αSMA positive cells. From the text: Representative compounds were screened using primary human fibroblasts (derived from IPF patients) treated with TGF-β1 to determine their ability to inhibit the fibrotic process.
Primary human fibroblasts derived from IPF patients (LL29 cells) [^1Xiaoqiu Liu, et. al., “Fibrotic Lung Fibroblasts Show Blunted Inhibition by cAMP Due to Deficient cAMP Response Element-Binding Protein Phosphorylation”, Journal of Pharmacology and Experimental Therapeutics (2005), 315(2), 678-687; ^2Watts, K. L., et. al., “RhoA signaling modulates cyclin D1 expression in human lung fibroblasts; implications for idiopathic pulmonary fibrosis”, Respiratory Research (2006), 7(1), 88] were obtained from American Type Culture Collection (ATCC) and expanded in F12 medium supplemented with 15% Fetal Bovine Serum and Penicillin/Streptomycin.
Each compound was dissolved in DMSO as a 10 mM stock and used to prepare compound source plates. Serial dilution (1:2, 11-point dose-response curves from 10 μM to […]) and compound transfer was performed using the ECHO 550 (Labcyte, Sunnyvale, Calif.) into 384-well clear bottom assay plates (Greiner Bio-One) with appropriate DMSO backfill for a final DMSO concentration of 0.1%. LL29 cells are plated at 1,500 cells/well in 80 μL/well F12 medium supplemented with 1% Fetal Bovine Serum. One hour after addition of the cells, TGF-01 (Peprotech; 20 ng/mL) was added to the plates to induce fibrosis (ref. 1 and 2 above). Wells treated with TGF-β1 and containing DMSO were used as controls. Cells were incubated at 37° C. and 5% CO2 for 4 days. Following incubation for 4 days, SYTOX green nucleic acid stain (Life Technologies [Thermo Fisher Scientific]) was added to the wells at a final concentration of 1 μM and incubated at room temperature for 30 min. Cells were then fixed using 4% formaldehyde (Electron Microscopy Sciences), washed 3 times with PBS followed by blocking and permeabilization using 3% Bovine Serum Albumin (BSA; Sigma) and 0.3% Triton X-100 (Sigma) in PBS. Cells were then stained with antibody specific to α-smooth muscle actin (aSMA; Abcam) (ref. 1 and 2 above) in 3% Bovine Serum Albumin (BSA; Sigma) and 0.3% Triton X-100 (Sigma) in PBS, and incubated overnight at 4° C. Cells were then washed 3 times with PBS, followed by incubation with Alexa Flor-647 conjugated secondary antibody (Life Technologies [Thermo Fisher Scientific]) and DAPI at room temperature for 1 hour. Cells were then washed 3 times with PBS and plates were sealed for imaging. αSMA staining was imaged by excitation at 630 nm and emission at 665 nm and quantified using the Compartmental Analysis program on the CellInsight CX5 (Thermo Scientific). Dead or apoptotic cells were excluded from analysis based on positive SYTOX green staining. % of total cells positive for aSMA were counted in each well and normalized to the average of 11 wells treated with TGF-01 on the same plate using Dotmatics' Studies Software. The normalized averages (fold change over untreated) of 3 replicate wells for each compound concentration were used to create dose-responses curves and EC50 values were calculated using non-linear regression curve fit in the Dotmatics' Studies Software. For EC50 of >10 μM, the percent inhibition at 10 μM is provided.

For test [2], the system named is Wnt activity (Sp5-Luc reporter gene, SW480 colon carcinoma cells). The experiment in a line: Screening assay for Wnt activity: Sp5-Luc reporter gene assay in SW480 cells. Format: cell-based, human. As to conditions: Homo sapiens, overnight incubation. The text has this: The screening assay for Wnt activity is described as follows. Reporter cell lines can be generated by stably transducing cancer cell lines (e.g., colon cancer) or primary cells (e.g., IEC-6 intestinal cells) with a lentiviral construct that includes a Wnt-responsive promoter driving expression of the firefly luciferase gene.
SW480 colon carcinoma cells were transduced with a lentiviral vector expressing luciferase with a human Sp5 promoter consisting of a sequence of eight TCF/LEF binding sites. SW480 cells stably expressing the Sp5-Luc reporter gene and a hygromycin resistance gene were selected by treatment with 150 μg/mL of hygromycin for 7 days. These stably transduced SW480 cells were expanded in cell culture and used for all further screening activities. Each compound was dissolved in DMSO as a 10 mM stock and used to prepare compound source plates. Serial dilution (1:3, 10-point dose-response curves starting from 10 μM) and compound transfer was performed using the ECHO 550 (Labcyte, Sunnyvale, Calif.) into 384-well white solid bottom assay plates (Greiner Bio-One) with appropriate DMSO backfill for a final DMSO concentration of 0.1%. For Sp5-Luc reporter gene assays, the cells were plated at 4,000 cells/well in 384-well plates with medium containing 1% fetal bovine serum and incubated overnight at 37° C. and 5% CO2. Following incubation, 20 μl of BrightGlo luminescence reagent (Promega) was added to each well of the 384-well assay plates. The plates were placed on an orbital shaker for 2 min and then luminescence was quantified using the Envision (Perkin Elmer) plate reader. Readings were normalized to DMSO only treated cells, and normalized activities were utilized for EC50 calculations using the dose-response log (inhibitor) vs. response variable slope (four parameters) nonlinear regression feature available in GraphPad Prism 5.0 (or Dotmatics). For EC50 of >10 μM, the percent inhibition at 10 μM is provided.

In a further test the test system is SW480 colon cancer cells. The experiment in a line: Cell viability assay (CellTiter-Blue) in SW480 colon cancer cells. The conditions noted are these: Homo sapiens, 96 h, four days, CellTiter-Blue. Format: cell-based, human. As for the experimental part: Representative compounds were screened using the following assay procedure to assess the effect on cell viability as described below.
Each compound was dissolved in DMSO as a 10 mM stock and used to prepare compound source plates. Serial dilution (1:3, 8-point dose-response curves from 10 μM to 0.0045 μM) and compound transfer was performed using the ECHO 550 (Labcyte, Sunnyvale, Calif.) into 96-well clear bottom, black-walled plates (Corning-Costar).
Approximately 2×10^3 SW480 colon cancer cells were seeded into each well and allowed to incubate in the presence or absence of compound for four days at 37° C./5% CO2. Eight replicates of DMSO-treated cells served as controls and cells treated with compound were performed in duplicate.
After incubation, 20 μL of CellTiter-Blue (Promega) was added to each well allowed to incubate for approximately 3 hours. This reagent was a buffered solution which contains resazurin, metabolically active cells were able to reduce rezarurin (blue) into resorufin (pink) which was highly fluorescent. This measured fluorescence was used as a readout for cell viability.
After incubation, the plates were read at Ex 560 nm Em 590 nm (Cytation 3, BioTek). Dose-response curves were generated and EC50 concentration values were calculated using non-linear regression curve fit in the GraphPad Prism (San Diego, Calif.) or Dotmatics' Studies Software (Bishops Stortford, UK). For EC50 of >10 μM, the percent inhibition at 10 μM is provided.
Background: Resazurin is reduced to fluorescent resorufin, in cell work by metabolically active cells.

For the next test, the system named is IL-6. The experiment in a line: IL-6 inhibition in LPS-stimulated THP-1 monocytes (HTRF). Format: cell-based, human. As to conditions: Homo sapiens; THP-1 cells, 500 ng/mL LPS, 22 h, HTRF IL-6 readout; 10-point dose-response from 10 μM. The protocol:
Human monocyte cell line (THP-1 cells; Catalog # TIB-202, ATCC, Manassas, Va.) were cultured in Roswell Park Memorial Institute (RPMI) 1640 Medium (Catalog #21870-100, Buffalo, N.Y.) with 1% L-glutamine, 1% HEPES, 1% Sodium Pyruvate, 2% Sodium Bicarbonate supplemented with 100 units/mL penicillin, 50 μg/mL streptomycin, 2-mercaptoethanol (0.05 mM) [basal medium] and 10% fetal bovine serum (Catalog #16140089, Life Technologies, Carlsbad, Calif.) at 37° C. and 5% CO2.
THP-1 cells were cultured in basal media with 1% FBS for 24 hours before the start of the assay. Each compound was dissolved in DMSO as a 10 mM stock and used to prepare compound source plates. Serial dilution (1:3, 10-point dose-response curves starting from 10 μM) and compound transfer was performed using the ECHO 550 (Labcyte, Sunnyvale, Calif.) into 384-well white low volume assay plates (Greiner Bio-One) with appropriate DMSO backfill for a final DMSO concentration of 0.1%. THP-1 cells were plated at 5000 cells/well in the 384-well plates and incubated at 37° C. for 2 h. 500 ng/mL of LPS was added after 2 hours and cells were incubated for another 22 hours at 37° C. Plates were spun in a centrifuge for 1 minute at […] and a mixture of anti-IL6 XL665, and anti-IL6 Cryptate diluted in reconstitution buffer (Cisbio Inc.) was added to each well. Following incubation for 3 hrs at room temperature, Homogeneous Time-Resolved Fluorescence (HTRF) was measured using the Envision (Perkin Elmer) at 665 nm and […]. The ratio of fluorescence at 665 nm to 620 nm was used as a readout for IL6 quantification. All samples were processed in duplicate. Readings were normalized to DMSO treated cells and normalized activities were utilized for EC50 calculations using the dose-response log (inhibitor) vs. response variable slope (four parameters) nonlinear regression feature available in GraphPad Prism 5.0 (or Dotmatics). For EC50 of >10 μM, the percent inhibition at 10 μM is provided.
On the technique in general: TR-FRET usually uses a lanthanide donor and a delayed reading to cut background.

In general, EC50 refers to the concentration needed to bring the measured effect to its halfway point. A lower EC50 goes with greater potency.

Take `CS(=O)(=O)NCc1cc(F)cc(-c2cccc3[nH]c(-c4n[nH]c5ncc(-c6cncc(NC(=O)c7ccccc7)c6)cc45)cc23)c1` [Compound 461, N-(5-(3-(4-(3-Fluoro-5-(methylsulfonamidomethyl)phenyl)-1H-indol-2-yl)-1H-pyrazolo[3,4-b]pyridin-5-yl)pyridin-3-yl)benzamide]: the EC50 came to 1340 nM in test [1], 210 nM in test [2], 1690 nM in the test on SW480 colon cancer cells and 547 nM with IL-6.
For `Nc1cncc(-c2cnc3[nH]nc(-c4cc5c(N6CCCCC6)cccc5[nH]4)c3c2)c1` [Compound 147, 5-(3-(4-(Piperidin-1-yl)-1H-indol-2-yl)-1H-pyrazolo[3,4-b]pyridin-5-yl) pyridin-3-amine] the same measures were 620 nM, 154 nM, 1050 nM and 213 nM.
For `CC(C)(C)C(=O)Nc1cncc(-c2cnc3[nH]nc(-c4cc5ccccc5[nH]4)c3c2)c1` [Compound 235, N-(5-(3-(1H-Indol-2-yl)-1H-pyrazolo[3,4-b]pyridin-5-yl)pyridin-3-yl) pivalamide], the concentration for a half-maximal effect (EC50) was found to be 282 nM in test [1], 732 nM in test [2], 3460 nM with SW480 colon cancer cells and 350 nM in the test on IL-6.
Taken in the same sequence, the figures for `CCC(=O)Nc1cncc(-c2cnc3[nH]nc(-c4cc5c(N6CCCCC6)cccc5[nH]4)c3c2)c1` [Compound 145, N-(5-(3-(4-(Piperidin-1-yl)-1H-indol-2-yl)-1H-pyrazolo[3,4-b]pyridin-5-yl)pyridin-3-yl)propionamide] were 1410 nM, 290 nM, 3670 nM and 2640 nM.
For `CC(C)Nc1cncc(-c2cnc3[nH]nc(-c4cc5c(N6CCN(C)CC6)cccc5[nH]4)c3c2)c1` [Compound 212, N-Isopropyl-5-(3-(4-(4-methylpiperazin-1-yl)-1H-indol-2-yl)-1H-pyrazolo[3,4-b]pyridin-5-yl)pyridin-3-amine] the same measures were 1480 nM, 1300 nM, 1940 nM and 173 nM.
For `CN(C)c1cncc(-c2cnc3[nH]nc(-c4cc5c(-c6cc(F)cc(CNS(C)(=O)=O)c6)cccc5[nH]4)c3c2)c1` [Compound 457, N-(3-(2-(5-(5-(Dimethylamino)pyridin-3-yl)-1H-pyrazolo[3,4-b]pyridin-3-yl)-1H-indol-4-yl)-5-fluorobenzyl)methanesulfonamide] the same measures were 1720 nM, 283 nM, 1120 nM and 1440 nM.
Regarding `O=C(Nc1cncc(-c2cnc3[nH]nc(-c4cc5ccccc5[nH]4)c3c2)c1)C1CCC1` [Compound 247, N-(5-(3-(1H-Indol-2-yl)-1H-pyrazolo[3,4-b]pyridin-5-yl)pyridin-3-yl) cyclobutanecarboxamide], the EC50 in test [1] was 67 nM; in test [2], 530 nM; with SW480 colon cancer cells, 1360 nM; with IL-6, 100 nM.
On to `CC(C)(C)C(=O)Nc1cncc(-c2cnc3[nH]nc(-c4cc5c(-c6cc(F)cc(CNS(C)(=O)=O)c6)cccc5[nH]4)c3c2)c1` [Compound 458, N-(5-(3-(4-(3-Fluoro-5-(methylsulfonamidomethyl)phenyl)-1H-indol-2-yl)-1H-pyrazolo[3,4-b]pyridin-5-yl)pyridin-3-yl)pivalamide], for which the EC50 was found to be 1200 nM in test [1], 485 nM in test [2], 1060 nM in the test with SW480 colon cancer cells and 146 nM in the test on IL-6.
For `CCCCC(=O)Nc1cncc(-c2cnc3[nH]nc(-c4cc5c(-c6ccccc6F)cccc5[nH]4)c3c2)c1` [Compound 64, N-(5-(3-(4-(2-Fluorophenyl)-1H-indol-2-yl)-1H-pyrazolo[3,4-b]pyridin-5-yl)pyridin-3-yl)pentanamide] the same measures were 1770 nM, 796 nM, 3880 nM and 3280 nM.
